In PubChem BioAssay AID602486 (The Scripps Research Institute Molecular Screening Center, 2012):
Active and inactive are the calls of the source. The rule behind the calls is not given here.

Target: 3C-like protease (3CLpro), SARS coronavirus (filed as Infectious bronchitis virus)
Assay: PubChem AID 602486
Conditions: recombinant 3CLpro, fluorogenic peptide cleavage

CC(=O)Nc1ccc(N(C(=O)Cn2cc(-c3ccccc3)nn2)C(C(=O)NC(C)(C)C)c2ccsc2)cc1 (stereo unspecified) was tested, and the IC50 was “inactive”.
